Values of other authors as cited in US20220160649A1, “PHARMACEUTICAL COMPOSITION” (priority 2019, published 2022).

Conditions: stated as well known

## Oc1ccc(/C=C/c2cc(O)cc(O)c2)cc1 [resveratrol (IIIA), resveratrol]
  solubility in water: almost insoluble
